Laboratory results published in publication PMC5242348, “Triterpene Constituents of Euphorbia Erythradenia Bioss. and their Anti-HIV Activity” (Iranian Journal of Pharmaceutical Research : IJPR, 2016).

Columns and labels:
[1] = system: single cycle replicable HIV-1 (SCR HIV-1) virions; settings: ratio of CC50 (Hela, XTT) to IC50 (p24)
[2] = XTT-based cytotoxicity assay; settings: human
[3] = system: single cycle replicable HIV-1 (SCR HIV-1) virions; experiment: microbe, parasite or virus in culture; settings: Human immunodeficiency virus 1, HeLa, 48 h, read-out: Anti HIV activity IC50 (concentration causing 50% HIV activity inhibition)

## CC1(C)CC[C@]2(C(=O)O)CC[C@]3(C)C(=CC[C@@H]4[C@@]5(C)CC[C@H](O)C(C)(C)[C@@H]5CC[C@]43C)[C@@H]2C1 [Compound 4, Oleanolic acid]
[1]
  Therapeutic index TI (CC50/IC50): 2.44
[2]
  CC50 at 3 days: 22 nM
[3]
  IC50: 9 nM

## CCC(=O)OC1C(C)CC23C(=O)C(C(OC(=O)c4ccccc4)C(COC(=O)c4cccnc4)C(OC(C)=O)C12)C1C(C)(C)C1(OC(C)=O)CC3(C)O (stereo not shown) [Compound 7, 5,13-diacetyl-7-benzoyl-20-nicotinyl-3-propionyl-1,2,6,7-tetrahydroingenol]
[2]
  CC50 at 3 days: 3260 nM
[3]
  IC50: 8 nM

## C=C(C)C(O)CCC(C)C1CC[C@@]2(C)C3CCC4C(C)(C)[C@@H](O)CC[C@@]45C[C@@]35CC[C@]12C (stereo partly shown) [1a & 1b]
[1]
  Therapeutic index TI (CC50/IC50): 4.67
[2]; HeLa cells
  CC50 at 3 days: 14 nM
[3]
  IC50: 3 nM

## CC=C(C)C(=O)OC1C(CO)C(O)C2C(=O)C3(CC(C)C(OC(=O)CCC)C13)C(C)(OC(=O)c1cccnc1)CC1(OC(C)=O)C2C1(C)C (stereo not shown) [Compound 8, 13-acetyl-5-angeloyl-11-nicotinyl-3-butanoyl-1,2,6,7-tetrahydroingenol]
[2]
  CC50 at 3 days: 168 nM
[3]
  IC50: 44 nM

## CC=C(C)C(=O)OC1C(COC(=O)c2cccnc2)C(OC(C)=O)C2C(=O)C3(CC(C)C(OC(=O)CC)C13)C(C)(O)CC1(OC(C)=O)C2C1(C)C (stereo not shown) [Compound 6, 7,13-diacetyl-5-angeloyl-20-nicotinyl-3-propionyl-1,2,6,7-tetrahydroingenol]
[1]
  Therapeutic index TI (CC50/IC50): 11.75
[2]
  CC50 at 3 days: 84 nM
[3]
  IC50: 7 nM

## CC(C/C=C\C(C)(C)O)C1CC[C@@]2(C)C3CCC4C(C)(C)[C@@H](O)CC[C@@]45C[C@@]35CC[C@]12C (stereo partly drawn) [Compound 2, Cycloart-23-ene-3β,25-diol]
[1]
  Therapeutic index TI (CC50/IC50): 3.67
[2]; HeLa cells
  CC50 at 3 days: 22 nM
[3]
  IC50: 6 nM

## Cc1ccnc2c1NC(=O)c1cccnc1N2C1CC1 [Nevirapine, reference compound]
[1]
  Therapeutic index TI (CC50/IC50): > 105.31
[2]
  CC50 at 3 days: 6740 nM
[3]
  IC50: < 64 nM

## CC=C(C)C(=O)OC1C(COC(=O)c2cccnc2)C(O)C2C(=O)C3(CC(C)C(OC(=O)CCC)C13)C(C)(O)CC1(OC(C)=O)C2C1(C)C (stereo not shown) [Compound 5, 13-acetyl-3-butanoyl-5-angeloyl-20-nicotinyl-1,2,6,7-tetrahydroingenol]
[1]
  Therapeutic index TI (CC50/IC50): 0.11
[2]
  CC50 at 3 days: 4 nM
[3]
  IC50: 36 nM
